Measurements published in patent publication US5032595A, “Method of stimulating steroidogenesis with alpidem” (FIDIA-Georgetown Institute for the Neurosciences, priority 1989, dated 1991).

What was measured:
[1] = test system: purified rat Leydig cells; experiment: Testosterone production by purified rat Leydig cells, basal and hCG stimulated; conditions: for Testosterone, No Additions / stimulation of testosterone production / effect on testosterone production (in words): basal; for Testosterone, No Additions / Testosterone, hCG (50 ng/ml): 4 hours at 32° C., mean ± S.D. n = 3; for Testosterone, No Additions: control 1.30 ± 0.20; for Testosterone, hCG (50 ng/ml): control 15.13 ± 2.05; for stimulation of testosterone production / effect on testosterone production (in words): purified rat Leydig cells; for stimulation of testosterone production: 240 min
[2] = biological target: T1, peripheral-type benzodiazepine receptor (PBR) in Y-1 cells (Mus musculus, UniProt P50637); experiment: [3H]PK 11195 binding in Y-1 adrenocortical cells; conditions: 37° C.; for rank order of compound displacement potency against [3H]PK 11195 binding: FIG. 2a
T1 construct: Y-1 cell cultures were scraped from the flasks; host or cells: Y-1 mouse adrenal tumor cells
Method: (§1) Cells--The Y-1 adrenal mouse tumor cell line used in these studies was obtained from the American Type Culture Collection (ATCC #CCL 79). Stock cultures were grown in modified Waymouth's MB752/l medium containing 20 mM HEPES, 1.2 g/l NaHCO3, 15% horse serum and 2.5% fetal calf serum, pH 7.4. Before use the cells were washed three times at 30 min intervals, with serum-free media in order to eliminate serum components that may interfere with the assays and were incubated for the indicated time periods in the presence of the drugs under investigation. Bovine fasciculata-reticularis and adrenocortical cells from adult (300 g) Sprague-Dawley rats were prepared as previously described by Yanagibashi et al, (1989) Endocrinology 124; 2838-2391.
Radioligand binding assays--Y-1 cell cultures were scraped from the flasks ([…]) in 5 ml of Kreb's buffer, dispersed by repetitive pipetting, and centrifuged at 1,200 × g for 5 min. The cell pellets were resuspended in Kreb's buffer and larger cellular aggregates were allowed to settle for 5 min. The finely dispersed cell suspensions were taken for further experimentation.
Binding assays were performed in a total volume of 250-400 ul of Kreb's buffer containing [^3 H]PK 11195 (0.07-20 nM) with 5 ug of cellular protein. Incubations were conducted at 37° C. for 30 min and bound radioligand was measured by filtration through Whatman GF/C filters followed by four rapid 5 ml washes with 25 mM Tris-HCl (pH 7.4) containing 1 uM PK 11195. Filters were subjected to liquid scintillation counting. Nonspecific binding was measured in the presence (of 10 uM nonradioactive PK 11195.

MA-10 Leydig cells = experiment: Progesterone production in MA-10 Leydig cells; format: cell-based, mouse; conditions: MA-10 cells, 4 hours incubation
Method: (§2) Cells--The MA-10 cell line originally cloned from the solid M5480P mouse Leydig cell tumor used in these experiments was obtained from Dr. Mario Ascoli (The Population Council, Rockefeller University, N.Y.). Stock cultures were grown in modified Waymouth's MB752/1 medium containing 20 mM HEPES, 1.2 g/l NaHCO3 and 15% horse serum, pH 7.4 as described by Ascoli (1981) Endocrinology 108, 88-95. Before use, the MA-10 Leydig cells were washed three times, in 30 min intervals, with serum-free media in order to eliminate serum components that may interfere with the assays and incubated for the indicated periods of time in the presence of the indicated substances. Testicular interstitial cells were prepared by enzymatic dissociation of testes obtained from adult Sprague-Dawley (300 g) rats. This preparation contained 20-30% 3β-hydroxysteroid dehydrogenase positive cells (Leydig cells). Leydig cells were further purified using discontinuous Percoll gradient centrifugation as described by Papadopoulos et al., 1985 FEBS Letters 188, 312-316. The preparations obtained contained 75-85% Leydig cells as shown by the histochemical staining for 3β-hydroxysteroid dehydrogenase by the procedure of Papadopoulos et al., FEBS Letters 188, supra. [^3 H]PK 11195 binding assays--Cells were scraped from 75 cm^2 culture flasks into 5 ml of Kreb's buffer, dispersed by trituration, and centrifuged at 1,200 × g for 5 min. The cell pellets were resuspended in buffer and larger cell aggregates were allowed to settle to the bottom of the tube before the cell suspension was retrieved for experimentation.
Steroid Biosynthesis--These experiments were performed with the MA-10 Leydig cells plated in 12×22 mm wells and incubated for the times shown and in the presence of the indicated substances at a final volume of 1 ml of serum-free media at 37° C. […]
Progesterone and 20-γ-hydroxyprogesterone production for the MA-10 cells, and testosterone accumulation for the rat Leydig cells were measured by means of radioimmunoassay. […]

PBR in MA-10 cells = biological target: T2, PBR in MA-10 cells (Mus musculus, UniProt P50637); experiment: [3H]PK 11195 binding in MA-10 Leydig cells; conditions: 37° C.
T2 construct: endogenous in cells; host or cells: MA-10 mouse Leydig tumor cells (from Dr. Mario Ascoli)
Method: as §2
[^3 H]PK 11195 binding studies on 5 ug of protein from the cell suspensions were performed in 250-400μl of Kreb's buffer at 37° C., essentially the same conditions under which the
effects of the compounds on steroidogenesis were studied. Nonspecific binding was determined in the presence of 10 μM PK 11195. […] Radioactivity trapped on the filters was determined by liquid scintillation counting. […]

[3] = Serum testosterone after intravenous alpidem in rats (dosing studies); format: in vivo; conditions: adult Sprague-Dawley rats
Method: Alpidem was suspended in isotonic saline by sonication and administered intravenously to adult Sprague-Dawley rats (200-300 g). The doses used ranged from 0.01-1.5 mg/kg, the highest concentration being just below the level needed for behavioral effects to be observed. Control rats were injected with saline alone to serve as control for measurement of basal serum levels of testosterone. After specific times the rats were killed by decapitation and blood was collected. Serum was prepared and testosterone was measured by radioimmunoassay. Each point included three rats for all permutations of each time point and concentration of alpidem used.

Y-1 adrenocortical cells = experiment: Steroid (20-hydroxyprogesterone) secretion in Y-1 cells; format: cell-based, mouse
Method: as §1
Measurement of steroid production--These experiments were performed with the Y-1 cells plated in 12--22 mm wells and incubated for the times shown at a final volume of 1 ml of serum-free media at 37° C. […] Steroid production was determined by measuring 20-γ-hydroxyprogesterone, the main steroid product of these cells, using a radioimmunoassay with an antibody donated by Dr. G. Nieswender (Univ. of Colorado, Fort Collins), under the process described in Kowal J. (1970), Recent Progress in Hormone Research 26, 623-687 and Schimmer B.P. (1981) in Functionally Differentiated Cell Lines, ed. […]

[4] = read-out: dissociation constant (Scatchard analysis)

T1 sequence (P50637 whole entry): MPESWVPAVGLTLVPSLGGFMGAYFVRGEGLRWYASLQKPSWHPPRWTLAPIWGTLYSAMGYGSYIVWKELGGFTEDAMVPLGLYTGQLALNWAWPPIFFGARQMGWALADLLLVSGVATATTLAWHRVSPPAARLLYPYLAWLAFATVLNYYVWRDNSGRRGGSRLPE
T2 sequence (P50637 whole entry): as above

## CC(Cc1cc(-c2ccccc2)nc2ccccc12)C(=O)N(C)C (single isomer, unassigned; (+)) [PK 14068, (+) N,N-dimethyl-x-methyl-2-phenyl-4-quinoline propanamide]
[1]; compound 10^-5 M
  Testosterone, No Additions: 1.16 ± 0.15 ng/10^5 cel s/4 hours
  Testosterone, hCG (50 ng/ml): 13.50 ± 1.51 ng/10^5 cel s/4 hours
[2]
  rank order of compound displacement potency against [3H]PK 11195 binding: alpidem>PK 11195>PK 14067>4'-chlorodiazepam>zolpidem>PK 14608, diazepam>flunitrazepam>clonazepam>flumazenil

## CC(Cc1cc(-c2ccccc2)nc2ccccc12)C(=O)N(C)C (single isomer, unassigned; (-)) [PK 14067, (-) N,N-dimethyl-x-methyl-2-phenyl-4-quinoline propanamide]
MA-10 Leydig cells
  stimulation of progesterone production: 3 to 4 fold
[1]; compound 10^-6 M
  Testosterone, No Additions: 2.20 ± 0.30 ng/10^5 cel s/4 hours
  Testosterone, hCG (50 ng/ml): 14.13 ± 1.49 ng/10^5 cel s/4 hours
[2]
  rank order of compound displacement potency against [3H]PK 11195 binding: alpidem>PK 11195>PK 14067>4'-chlorodiazepam>zolpidem>PK 14608, diazepam>flunitrazepam>clonazepam>flumazenil

## CCC(C)N(C)C(=O)c1cc2ccccc2c(-c2ccccc2Cl)n1 (stereo not drawn) [PK 11195, 1-(2-chlorophenyl)-N-methyl-N-(l-methylpropyl)-3-isoquinoline carboxamide]
MA-10 Leydig cells
  stimulation of progesterone production: 3 to 4 fold
PBR in MA-10 cells
  density of binding sites: 56 pmol/mg of protein
  time to reach steady-state specific binding: 10 min
PBR in MA-10 cells; [4]
  Kd: 1.8 nM
[1]; compound 10^-6 M
  Testosterone, No Additions: 2.33 ± 0.21 ng/10^5 cel s/4 hours
  Testosterone, hCG (50 ng/ml): 14.86 ± 1.51 ng/10^5 cel s/4 hours
[1]
  stimulation of testosterone production: about 2 fold
[2]
  Bmax: 54 pmol/mg of protein
  time to reach binding equilibrium: ≤ 15 min
  rank order of compound displacement potency against [3H]PK 11195 binding: alpidem>PK 11195>PK 14067>4'-chlorodiazepam>zolpidem>PK 14608, diazepam>flunitrazepam>clonazepam>flumazenil
[2]; [4]
  Kd: 1.8 nM

## CCCN(CCC)C(=O)Cc1c(-c2ccc(Cl)cc2)nc2ccc(Cl)cn12 [alpidem]
MA-10 Leydig cells
  stimulation of progesterone production: 3 to 4 fold
[3]
  time for which elevated testosterone levels were maintained: at least 4 hours
[3]; doses greater than or equal to 0.01 mg/kg
  increase in serum testosterone levels: 2-4 times above control levels
[1]; compound 10^-7 M
  Testosterone, No Additions: 2.35 ± 0.27 ng/10^5 cel s/4 hours
  Testosterone, hCG (50 ng/ml): 15.02 ± 2.31 ng/10^5 cel s/4 hours
[1]
  stimulation of testosterone production: about 2 fold
[2]
  rank order of compound displacement potency against [3H]PK 11195 binding: alpidem>PK 11195>PK 14067>4'-chlorodiazepam>zolpidem>PK 14608, diazepam>flunitrazepam>clonazepam>flumazenil

## O=C1CN=C(c2ccccc2Cl)c2cc([N+](=O)[O-])ccc2N1 [clonazepam]
Y-1 adrenocortical cells
  effect on steroid production (in words): failed to stimulate steroid production
[1]; compound 10^-5 M
  Testosterone, No Additions: 1.16 ± 0.11 ng/10^5 cel s/4 hours
  Testosterone, hCG (50 ng/ml): 14.90 ± 2.22 ng/10^5 cel s/4 hours
[1]
  effect on testosterone production (in words): no effect
[2]
  rank order of compound displacement potency against [3H]PK 11195 binding: alpidem>PK 11195>PK 14067>4'-chlorodiazepam>zolpidem>PK 14608, diazepam>flunitrazepam>clonazepam>flumazenil

## CN1C(=O)CN=C(c2ccccc2)c2cc(Cl)ccc21 [diazepam]
[1]; compound 10^-5 M
  Testosterone, No Additions: 1.90 ± 0.10 ng/10^5 cel s/4 hours
  Testosterone, hCG (50 ng/ml): 14.96 ± 3.09 ng/10^5 cel s/4 hours
[1]
  effect on testosterone production (in words): less potent
[2]
  rank order of compound displacement potency against [3H]PK 11195 binding: alpidem>PK 11195>PK 14067>4'-chlorodiazepam>zolpidem>PK 14608, diazepam>flunitrazepam>clonazepam>flumazenil

## CCOC(=O)c1ncn2c1CN(C)C(=O)c1cc(F)ccc1-2 [flumazenil]
Y-1 adrenocortical cells
  effect on steroid production (in words): failed to stimulate steroid production
[2]
  rank order of compound displacement potency against [3H]PK 11195 binding: alpidem>PK 11195>PK 14067>4'-chlorodiazepam>zolpidem>PK 14608, diazepam>flunitrazepam>clonazepam>flumazenil

## CN1C(=O)CN=C(c2ccccc2F)c2cc([N+](=O)[O-])ccc21 [flunitrazepam]
[2]
  rank order of compound displacement potency against [3H]PK 11195 binding: alpidem>PK 11195>PK 14067>4'-chlorodiazepam>zolpidem>PK 14608, diazepam>flunitrazepam>clonazepam>flumazenil

## Cc1ccc(-c2nc3ccc(C)cn3c2CC(=O)N(C)C)cc1 [zolpidem]
[2]
  rank order of compound displacement potency against [3H]PK 11195 binding: alpidem>PK 11195>PK 14067>4'-chlorodiazepam>zolpidem>PK 14608, diazepam>flunitrazepam>clonazepam>flumazenil
